Patent US20200216499A1, “ANGIOTENSIN-(1-7) ANALOGS AND METHODS RELATING THERETO” (WAKE FOREST UNIVERSITY HEALTH SCIENCES, priority 2015, published 2020)
“Also recorded” adds a separate entry of the source.

Tests used:
[1] = target: human ACE (Homo sapiens, UniProt P12821); assay: Degradation by ACE (HPLC of reaction products); assay type: in vitro ADME; details: 100 μM peptide, 1.0 μg human ACE, reaction buffer pH 7.4, 2 hours at 37° C., HPLC UV 220 nm
Procedure: FIGS. 2A-4D show graphs depicting enzymatic digestion by angiotensin converting enzyme (ACE) of Ang-(1-7), Ang-(1-7)-ACCA^5, Ang-(1-7)-ACCA^6, and Ang-(1-7)-ACCA^3, respectively, in accordance with one aspect. The peptides (100 μM) were incubated with human ACE (1.0 μg) in reaction buffer for 2 hours at 37° C. in a final volume of 100 μL, and the reaction products assessed by HPLC (UV 220 nm).
Analogs with ACCA at position 5 (Ang-(1-7)-ACCA^5), position 6 (Ang-(1-7)-ACCA^6), and position 3 (Ang-(1-7)-ACCA^3) were assessed to determine whether the analogs were degraded by ACE. Ang-(1-7) served as the control. Specifically, 100 μM of one of the three analogs or Ang-(1-7) was incubated with 1.0 μg of human ACE in reaction buffer (25 mM Hepes, 125 mM NaCl, 10 μM ZnCl2, pH 7.4) for 2 hours at 37° C. in a final volume of 100 μL. The resultant reaction products were separated by high pressure liquid chromatography (HPLC) on a Phenomenex Aeris Peptide C18 column using a Shimadzu Prominence system and detected by UV analysis at 220 nm.

[2] = target: T1, Human DPP III (Homo sapiens, UniProt Q9NY33); assay: Degradation by DPP III (HPLC of reaction products); assay type: in vitro ADME; details: 100 μM peptide, 1.0 μg human DPP III, 2 hours at 37° C., HPLC UV 220 nm
T1 sequence (Q9NY33 1-737): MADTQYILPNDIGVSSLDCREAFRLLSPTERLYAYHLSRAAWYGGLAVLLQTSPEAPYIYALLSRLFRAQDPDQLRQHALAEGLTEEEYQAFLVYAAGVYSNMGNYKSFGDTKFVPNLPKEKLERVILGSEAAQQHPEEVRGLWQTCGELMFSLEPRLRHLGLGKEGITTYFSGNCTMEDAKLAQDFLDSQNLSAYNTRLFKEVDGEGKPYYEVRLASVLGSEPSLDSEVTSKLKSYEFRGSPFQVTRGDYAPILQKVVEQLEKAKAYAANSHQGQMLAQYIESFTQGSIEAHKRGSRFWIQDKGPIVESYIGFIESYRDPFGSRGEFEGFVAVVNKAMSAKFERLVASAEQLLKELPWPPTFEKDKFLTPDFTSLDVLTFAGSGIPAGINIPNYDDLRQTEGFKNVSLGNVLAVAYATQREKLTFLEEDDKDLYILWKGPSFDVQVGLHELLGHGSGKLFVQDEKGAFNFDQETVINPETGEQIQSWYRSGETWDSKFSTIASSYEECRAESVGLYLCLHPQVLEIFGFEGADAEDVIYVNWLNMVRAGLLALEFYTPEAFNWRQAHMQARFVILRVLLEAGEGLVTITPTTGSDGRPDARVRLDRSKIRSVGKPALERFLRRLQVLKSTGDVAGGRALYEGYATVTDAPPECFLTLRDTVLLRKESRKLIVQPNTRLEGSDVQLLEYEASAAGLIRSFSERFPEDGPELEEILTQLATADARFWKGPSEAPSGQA
Procedure: FIGS. 3A-5D show graphs depicting enzymatic digestion by dipeptidyl peptidase III (DPE III) of Ang-(1-7), Ang-(1-7)-ACCA^5, Ang-(1-7)-ACCA^6, and Ang-(1-7)-ACCA^3, respectively, in accordance with one aspect. The peptides (100 μM) were incubated with human DPE III (1.0 μg) in reaction buffer for 2 hours at 37° C. in a final volume of 100 μL, and the reaction products assessed by HPLC (UV 220 nm).
The Ang-(1-7) and the analogs Ang-(1-7)-ACCA^5, Ang-(1-7)-ACCA^6, and Ang-(1-7)-ACCA^3 were assessed to determine whether they were resistant to metabolism by the enzyme dipeptidyl peptidase III (DPP III). DPP III metabolizes Ang-(1-7) at different sites as compared to ACE (Chappell et al., Front Endocrinol (Lausanne) 4:201 (pp. 1-13) (2014)). The incubation conditions and detection methods for the metabolism by DPP III were identical to that used to assess degradation by ACE as described in Example 3.

[3] = cited from earlier work

Chain of human ACE (P12821 30-1306): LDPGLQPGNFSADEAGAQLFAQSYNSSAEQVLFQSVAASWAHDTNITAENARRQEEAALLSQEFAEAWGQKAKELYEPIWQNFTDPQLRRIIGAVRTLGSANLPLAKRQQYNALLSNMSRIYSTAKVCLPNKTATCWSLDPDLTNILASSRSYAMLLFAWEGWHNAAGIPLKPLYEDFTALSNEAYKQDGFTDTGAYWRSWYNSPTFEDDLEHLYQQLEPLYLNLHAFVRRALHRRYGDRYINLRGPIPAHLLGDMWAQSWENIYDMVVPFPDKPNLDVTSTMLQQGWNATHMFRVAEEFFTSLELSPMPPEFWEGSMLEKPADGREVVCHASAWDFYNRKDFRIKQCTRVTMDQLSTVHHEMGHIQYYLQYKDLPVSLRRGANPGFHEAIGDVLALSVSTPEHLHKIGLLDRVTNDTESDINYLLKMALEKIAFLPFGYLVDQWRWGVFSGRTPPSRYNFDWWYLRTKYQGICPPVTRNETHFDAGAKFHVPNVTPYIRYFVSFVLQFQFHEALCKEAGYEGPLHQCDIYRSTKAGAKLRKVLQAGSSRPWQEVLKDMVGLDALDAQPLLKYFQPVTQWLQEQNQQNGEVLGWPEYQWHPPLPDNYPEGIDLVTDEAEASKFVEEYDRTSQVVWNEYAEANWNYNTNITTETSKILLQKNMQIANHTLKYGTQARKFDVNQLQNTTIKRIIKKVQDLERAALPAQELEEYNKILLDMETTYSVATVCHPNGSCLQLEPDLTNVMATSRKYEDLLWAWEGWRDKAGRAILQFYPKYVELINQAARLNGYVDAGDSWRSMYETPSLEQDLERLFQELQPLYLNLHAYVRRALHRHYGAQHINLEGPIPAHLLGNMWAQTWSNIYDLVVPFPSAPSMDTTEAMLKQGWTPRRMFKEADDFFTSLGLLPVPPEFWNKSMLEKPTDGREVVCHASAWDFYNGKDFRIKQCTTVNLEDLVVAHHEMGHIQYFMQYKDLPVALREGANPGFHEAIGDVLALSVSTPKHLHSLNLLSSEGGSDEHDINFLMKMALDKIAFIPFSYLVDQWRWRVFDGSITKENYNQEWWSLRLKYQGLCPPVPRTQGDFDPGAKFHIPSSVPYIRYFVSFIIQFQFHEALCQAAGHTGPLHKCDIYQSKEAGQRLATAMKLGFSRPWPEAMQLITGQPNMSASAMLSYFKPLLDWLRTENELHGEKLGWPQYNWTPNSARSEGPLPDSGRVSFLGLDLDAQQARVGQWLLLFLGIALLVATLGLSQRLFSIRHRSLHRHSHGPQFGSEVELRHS

CC[C@H](C)[C@H](NC(=O)[C@H](Cc1ccc(O)cc1)NC(=O)[C@@H](NC(=O)[C@H](CCCNC(=N)N)NC(=O)[C@@H](N)CC(=O)O)C(C)C)C(=O)N[C@@H](Cc1c[nH]cn1)C(=O)N1CCC[C@H]1C(=O)O [Ang-(1-7), Asp-Arg-Val-Tyr-Ile-His-Pro]
degradation / resistance to metabolism by ACE [1]: degraded to Ang-(1-5) and the dipeptide His-Pro; also recorded: readily degraded
degradation / resistance to metabolism by DPP III [2]: sequentially degraded; also recorded: readily degraded
half-life in plasma [3]: 30 min
